The values below come from paper PMC2673089 (Journal of pharmaceutical sciences, 2008).

In one data set the target is T1, rat CYP3A1 (Rattus norvegicus, UniProt P04800).
T1 sequence (P04800 1-504): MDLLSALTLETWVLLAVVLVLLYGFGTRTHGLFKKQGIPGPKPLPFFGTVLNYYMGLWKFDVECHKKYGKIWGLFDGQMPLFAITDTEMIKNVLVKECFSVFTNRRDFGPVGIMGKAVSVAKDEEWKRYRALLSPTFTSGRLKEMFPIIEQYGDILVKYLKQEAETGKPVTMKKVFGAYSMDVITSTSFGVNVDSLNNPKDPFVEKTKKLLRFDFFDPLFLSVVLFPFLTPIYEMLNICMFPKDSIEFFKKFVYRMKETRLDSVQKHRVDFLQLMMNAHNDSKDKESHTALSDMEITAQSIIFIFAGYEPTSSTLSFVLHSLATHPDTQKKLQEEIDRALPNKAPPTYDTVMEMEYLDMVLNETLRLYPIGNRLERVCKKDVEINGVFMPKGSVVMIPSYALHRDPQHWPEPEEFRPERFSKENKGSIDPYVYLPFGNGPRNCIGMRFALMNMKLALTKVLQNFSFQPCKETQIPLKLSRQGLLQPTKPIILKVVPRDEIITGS
As to the kind of experiment: Metabolism by recombinant rat CYP3A1 Supersomes. It is filed as in vitro ADME.

A further data set has as its target NET. The conditions noted are these: read-out: NET Ki; mean ± SEM; cited from earlier work.
A further data set has as its target muscarinic M1 receptors. The conditions noted are these: read-out: M1 Ki; mean ± SEM; cited from earlier work.
A further data set concerns the target T2, rat CYP2C11 (Rattus norvegicus, UniProt P08683).
T2 sequence (P08683 1-500): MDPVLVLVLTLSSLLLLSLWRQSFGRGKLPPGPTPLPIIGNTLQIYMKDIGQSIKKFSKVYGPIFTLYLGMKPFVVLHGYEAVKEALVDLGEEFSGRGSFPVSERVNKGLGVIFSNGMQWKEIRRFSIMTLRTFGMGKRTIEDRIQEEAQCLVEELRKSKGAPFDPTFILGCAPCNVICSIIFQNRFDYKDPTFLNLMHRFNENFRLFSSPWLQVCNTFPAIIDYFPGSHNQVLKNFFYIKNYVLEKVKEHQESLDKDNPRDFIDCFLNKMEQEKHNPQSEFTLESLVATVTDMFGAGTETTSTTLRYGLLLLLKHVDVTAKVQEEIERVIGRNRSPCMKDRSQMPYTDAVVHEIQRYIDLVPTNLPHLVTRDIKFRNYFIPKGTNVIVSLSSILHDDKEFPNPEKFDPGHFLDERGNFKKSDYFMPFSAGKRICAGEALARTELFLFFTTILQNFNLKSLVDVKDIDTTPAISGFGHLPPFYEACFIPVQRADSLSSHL
As to the kind of experiment: Metabolism by recombinant rat CYP2C11 Supersomes. It is filed as in vitro ADME.

In the next data set the target is human CYP2E1 (Homo sapiens, UniProt P05181). As to the kind of experiment: Metabolism by recombinant human CYP2E1 Supersomes. It is filed as in vitro ADME.
A further data set relates to DA uptake. The conditions noted are these: read-out: DA Uptake IC50; mean ± SEM; cited from earlier work.
The target of another data set is T3, rat CYP1A2 (Rattus norvegicus, UniProt P04799).
T3 sequence (P04799 1-513): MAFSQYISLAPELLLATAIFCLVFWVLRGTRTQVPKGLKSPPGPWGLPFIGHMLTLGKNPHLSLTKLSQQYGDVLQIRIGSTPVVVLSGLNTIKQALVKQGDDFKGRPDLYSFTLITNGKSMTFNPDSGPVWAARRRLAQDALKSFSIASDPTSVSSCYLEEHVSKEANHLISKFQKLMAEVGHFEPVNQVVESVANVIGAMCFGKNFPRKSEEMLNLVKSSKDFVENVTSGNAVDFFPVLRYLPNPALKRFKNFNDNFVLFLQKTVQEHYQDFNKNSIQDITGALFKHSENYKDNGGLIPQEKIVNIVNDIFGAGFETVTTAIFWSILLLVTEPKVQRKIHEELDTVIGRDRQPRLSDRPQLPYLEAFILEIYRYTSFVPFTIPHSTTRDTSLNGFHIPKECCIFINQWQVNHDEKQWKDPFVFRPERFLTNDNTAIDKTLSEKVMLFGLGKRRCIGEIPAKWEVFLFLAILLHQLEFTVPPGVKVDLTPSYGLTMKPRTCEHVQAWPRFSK
The data set can be described thus: Metabolism by recombinant rat CYP1A2 Supersomes. It is filed as in vitro ADME.

In another data set the test system is Caco-2 monolayers. As to the kind of experiment: Bidirectional transport and verapamil inhibition across Caco-2 monolayers. It is filed as in vitro ADME.
The next data set deals with T4, rat CYP2D1 (Rattus norvegicus, UniProt P10633).
T4 sequence (P10633 1-504): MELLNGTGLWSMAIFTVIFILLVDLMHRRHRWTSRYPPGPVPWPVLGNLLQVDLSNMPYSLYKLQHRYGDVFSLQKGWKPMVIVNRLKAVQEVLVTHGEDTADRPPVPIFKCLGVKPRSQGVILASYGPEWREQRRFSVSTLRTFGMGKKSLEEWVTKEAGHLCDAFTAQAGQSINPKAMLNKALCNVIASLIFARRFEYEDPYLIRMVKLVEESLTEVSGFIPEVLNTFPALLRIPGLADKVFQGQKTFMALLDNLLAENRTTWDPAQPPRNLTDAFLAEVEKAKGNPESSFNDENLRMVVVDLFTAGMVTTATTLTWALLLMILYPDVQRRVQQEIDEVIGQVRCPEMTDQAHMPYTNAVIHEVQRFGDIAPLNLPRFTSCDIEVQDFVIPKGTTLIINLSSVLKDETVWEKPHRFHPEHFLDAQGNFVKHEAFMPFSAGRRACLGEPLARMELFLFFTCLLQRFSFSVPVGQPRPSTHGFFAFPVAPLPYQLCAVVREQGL
As to the kind of experiment: Metabolism by recombinant rat CYP2D1 Supersomes. It is filed as in vitro ADME.

In another data set the target is SERT. The conditions noted are these: read-out: SERT Ki; mean ± SEM; cited from earlier work.
Another data set deals with histamine H1 receptors. As to conditions: read-out: H1 Ki; mean ± SEM; cited from earlier work.
Data set [1] relates to pooled human liver microsomes. As to the kind of experiment: Metabolism in pooled human liver microsomes. It is filed as in vitro ADME.
[2] abbreviates: 0.1 mM, absence of verapamil, mean ± SD (n = 3).

The structures appear in SMILES notation.

Sequence of human CYP2E1 (P05181 whole entry): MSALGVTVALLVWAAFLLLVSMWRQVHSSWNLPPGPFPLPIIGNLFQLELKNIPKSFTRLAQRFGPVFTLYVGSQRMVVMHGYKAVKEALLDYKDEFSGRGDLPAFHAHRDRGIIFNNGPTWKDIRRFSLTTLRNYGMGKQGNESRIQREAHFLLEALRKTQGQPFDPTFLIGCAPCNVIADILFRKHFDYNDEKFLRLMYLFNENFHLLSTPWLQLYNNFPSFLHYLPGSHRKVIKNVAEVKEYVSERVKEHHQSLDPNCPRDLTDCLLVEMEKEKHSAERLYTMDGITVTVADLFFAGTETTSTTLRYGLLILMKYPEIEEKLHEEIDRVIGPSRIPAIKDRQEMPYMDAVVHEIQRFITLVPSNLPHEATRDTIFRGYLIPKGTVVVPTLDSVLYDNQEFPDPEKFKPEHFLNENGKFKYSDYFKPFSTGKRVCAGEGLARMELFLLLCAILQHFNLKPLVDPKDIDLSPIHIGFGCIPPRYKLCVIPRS

Turning to `CC(C)[C@@H](N)CN1C2CCC1CC(OC(c1ccc(F)cc1)c1ccc(F)cc1)C2` (stereo partly drawn) [GA2-50, N-((R)-2″-amino-3″-methyl-n-butyl)-3α-[(bis-4′-fluorophenyl)methoxy]tropane], the “Intrinsic Clearance” value on rat CYP3A1 (Rat CYP 3A1 50 pmol/mL, 4 μM) is reported as 0.09 ± 0.02 (c,d) microliters per minute per picomole of P450; on rat CYP2C11 (Rat CYP 2C11 50 pmol/mL, 4 μM) it was 0.23 ± 0.01 (a) microliters per minute per picomole of P450; on human CYP2E1 (Human CYP 2E1 50 pmol/mL, 4 μM) it was 0.09 ± 0.02 (c,d) microliters per minute per picomole of P450; at rat CYP1A2 (Rat CYP 1A2 50 pmol/mL, 4 μM), 0.06 ± 0.01 (d) microliters per minute per picomole of P450; at rat CYP2D1 (Rat CYP 2D1 50 pmol/mL, 4 μM), 0.11 ± 0.02 (c) microliters per minute per picomole of P450; in [1] (Pooled HLM 0.8 mg/mL, 4 μM, mean ± SD n = 3) it was 3.17 ± 1.18 microliters per minute per milligram of protein. Also, the “Substrate disappearance after 60 min incubation vs control” value at rat CYP3A1 (rat CYP3A1, 10 μM, 50 pmol/mL P450, p < 0.05) is “statistically significant disappearance”; on rat CYP2C11 (rat CYP2C11, 10 μM, 50 pmol/mL P450, p < 0.05) it was “statistically significant disappearance”; on human CYP2E1 (human CYP2E1, 10 μM, 50 pmol/mL P450, p < 0.05), “statistically significant disappearance”; at rat CYP1A2 (rat CYP1A2, 10 μM, 50 pmol/mL P450, p < 0.05), “statistically significant disappearance”; at rat CYP2D1 (rat CYP2D1, 10 μM, 50 pmol/mL P450, p < 0.05), “statistically significant disappearance”. For the same compound, the Ki (usually a measure of affinity in units of concentration, obtained from inhibition or displacement) at NET was 2130 ± 160 nM; on muscarinic M1 receptors, 4020 ± 592 nM; on SERT, 3870 ± 135 nM; at histamine H1 receptors, 218 ± 15.5 nM. Further, the “Intrinsic clearance, fold lower than 4′,4″-diCl BZT” value on rat CYP2C11 (rat CYP2C11, comparator values ref 26) is recorded as 6.3 fold; in data set [1] (pooled human liver microsomes, comparator values ref 26) it was 4.0 fold. Further, in the data set with DA uptake, the IC50 – broadly, the concentration that inhibits the measured activity by half – was 20.7 ± 2.85 nM. Also, in the data set with Caco-2 monolayers, the “Permeability relative to JHW 025” value is recorded as over 4 fold. For the same compound, the “Efflux Ratio” value in the data set with Caco-2 monolayers (0.1 mM, Papp(B-A)/Papp(A-B)) stood at 8.3. In addition, in the data set on Caco-2 monolayers (setting [2]), the “Papp A-B” value is on record as 1.37 ± 0.08 × 10^−6 cm/s. The “Papp B-A” value with Caco-2 monolayers (setting [2]) is on record as 11.36 ± 1.41 × 10^−6 cm/s. In addition, the “Enhancement ratio of A-B transport by verapamil” value in the data set on Caco-2 monolayers (verapamil 200 μM) was 3.4.
